In patent US9907795B2, “Method of treatment of chronic cough administering orvepitant in combination with other therapeutic agents” (NeRRe Therapeutics Limited, priority 2016, dated 2018):
Structures can show the parent of a compound that is named as a salt.

Columns and labels:
Assay type in all cases: in vivo, human
[1] = tested on: patients with a diagnosis of chronic treatment-refractory cough; experiment: Cough Severity VAS (daily diary), open-label pilot study
Experimental: (§1) Orvepitant maleate Form 1 was evaluated in an open-label pilot study to determine the efficacy of multiple dosing in male and female patients with a diagnosis of chronic treatment-refractory cough for over 3 months. The study was a single-arm (30 mg orvepitant maleate Form 1 once daily), 4-week study with a 4 week follow-up. There were five scheduled clinic visits; Screening visit, Baseline visit, Week 1 visit, Week 4 visit (end of treatment period) and a Week 8 Follow-up visit. The following instruments were used to assess efficacy: • Subjects were fitted with an ambulatory cough monitor (ACM) to record objective cough frequency over 24 hours at Screening, Weeks 1, 4 and 8 • Cough-specific Quality of Life Questionnaire (CQLQ): Subjects were asked to complete this questionnaire at Screening, Weeks 1, 4 and 8 • Global Rating of Change for Cough Frequency & Severity Scale: Subjects were asked to complete this scale at Weeks 1, 4 and 8 • Cough Severity VAS: Subjects were issued with diaries for daily recording of Cough Severity VAS scores. 13 subjects were enrolled into the study and provided data on cough frequency, Cough QOL, Global Rating of Change for Cough Frequency and Severity, and Cough Severity VAS, but one of the 13 subjects had data missing on cough frequency (day and night) at week 4.

[2] = tested on: patients with a diagnosis of chronic treatment-refractory cough; experiment: Objective cough frequency by ambulatory cough monitor, open-label pilot study; settings: for daytime objective cough frequency, mean change from Baseline: Week 4 (end of treatment) vs Baseline, 30 mg once daily, p<0.001, primary endpoint
Experimental: as §1, with “4. The primary endpoint was change in objective daytime cough frequency at the end of the treatment period at Week 4 compared to Baseline.” for “4.”

[3] = tested on: patients with a diagnosis of chronic treatment-refractory cough; experiment: Global Rating of Change for Cough Frequency & Severity Scale, open-label pilot study
Experimental: as §1

[4] = tested on: patients with a diagnosis of chronic treatment-refractory cough; experiment: Cough-specific Quality of Life Questionnaire (CQLQ), open-label pilot study
Experimental: as §1

`Cc1cc(F)ccc1[C@H]1C[C@@H](N2CCN3C(=O)CC[C@H]3C2)CCN1C(=O)N(C)[C@H](C)c1cc(C(F)(F)F)cc(C(F)(F)F)c1` [Orvepitant maleate Form 1, 2-(R)-(4-Fluoro-2-methyl-phenyl)-4-(S)-((8aS)-6-oxo-hexahydro-pyrrolo[1,2-α]-pyrazin-2-yl)-piperidine-1-carboxylic acid [1-(R)-(3,5-bis-trifluoromethyl-phenyl)-ethyl]-methylamide maleate] was tested, and the “night-time cough severity VAS, average change from Baseline” value ([1]; Week 1 of study, p=0.01) was −14%, the “daytime cough severity VAS, average change from Baseline” value ([1]; Week 2 of study, p=0.002) was −39% and the “daytime cough severity VAS, average change from Baseline” value ([1]; Week 6 of study, p=0.001) was −14%. The “night-time cough severity VAS, average change from Baseline” value ([1]; Week 6 of study, p=0.017) was −18%, the “reduction in mean night-time objective cough frequency” value (“reduction” below) ([2]; Week 1 vs Baseline, p=0.19) was “no significant reduction” and the “daytime objective cough frequency, mean change from Baseline” value ([2]; negative binomial regression model) was −18.9 coughs/hr. For the same molecule, the “daytime objective cough frequency, mean change from Baseline” value [2] was −26%, the “reduction” value ([2]; Week 4 vs Baseline, p=0.65) was “no significant reduction” and the “change in daytime objective cough frequency” value ([2]; Week 8 compared to Week 4, p=0.86) was “no significant change”. For the same molecule, the “reduction” value ([2]; between Weeks 4 and 8, p=0.10) was “no significant reduction”, the “Global Rate of Change, cough frequency: subjects who felt worse” value ([3]; Week 1) was “No subjects felt worse” and the “Global Rate of Change, cough severity: subjects who felt worse” value ([3]; Week 1) was “No subjects felt worse”. For the same molecule, the “Global Rate of Change, cough frequency: median improvement score” value ([3]; Week 1, 3 = somewhat better) was 3, the “Global Rate of Change, cough severity: median improvement score” value ([3]; Week 1, 4 = moderately better) was 4 and the “Global Rate of Change, cough frequency: subjects who felt worse” value ([3]; Week 4) was “No subjects felt worse”. For the same molecule, the “Global Rate of Change, cough severity: subjects who felt worse” value ([3]; Week 4) was “No subjects felt worse”, the “Global Rate of Change, cough frequency: median improvement score” value ([3]; Week 4, 3 = somewhat better) was 3 and the “Global Rate of Change, cough severity: median improvement score” value ([3]; Week 4, 3 = somewhat better) was 3. For the same molecule, the “CQLQ Overall score, mean change from Baseline” value (shortened to “CQLQ Overall score, mean change”) ([4]; Week 1, p<0.001) was −4.0, the “CQLQ Overall score, mean change” value ([4]; Week 4, p=0.005) was −4.4 and the “CQLQ Overall score, mean change” value ([4]; Week 8, p=0.033) was −3.4. The “CQLQ Extreme Physical domain, change from Baseline” value ([4]; Weeks 1, 4 and 8) was “significant changes from Baseline”, the “CQLQ Psychosocial domain, change from Baseline” value ([4]; Weeks 1, 4 and 8) was “significant changes from Baseline” and the “CQLQ Overall score, difference” value ([4]; between Weeks 4 and 8, p=0.52) was “no significant difference”. For the same molecule, the “CQLQ, any of the domains, change” value ([4]; from Week 4 to Week 8) was “no significant changes” and the “CQLQ Emotional domain, change” value ([4]; in vivo) was “No significant changes”.
